Measured values from PubChem BioAssay AID248 (DTP/NCI, 2004).
“And” between values parts separate entries of the source, which are not always exact repeats. Equal entries are not always repeated. Inconclusive results and toxic doses are left out. No stated cut-off is given here; in the data, active means T/C of 150% or more; inactive means T/C below 125%.

Test system: L1210 leukemia ip in BDF1 mice, survival T/C
Assay: NCI In Vivo Anticancer Drug Screen. Data for tumor model L1210 Leukemia (intraperitoneal) in B6D2F1 (BDF1) mice
Details: endpoint: mean survival time, higher = longer survival
Method in brief: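 Survival endpoint. Drug-treated group vs vehicle group, expressed as T divided by C. Tumor passaged by transplantation.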

[1] = dose: 100.0 mg/kg/injection, schedule: Q01DX001 (ip), vehicle: carboxymethylcellulose (CMC)
[2] = dose: 100.0 mg/kg/injection, schedule: Q01DX009 (ip), vehicle: carboxymethylcellulose (CMC)
[3] = dose: 100.0 mg/kg/injection, schedule: Q04DX002 (ip), vehicle: Klucel (hydroxypropylcellulose) (HPC)
[4] = dose: 100.0 mg/kg/injection, schedule: Q04DX002 (ip), vehicle: carboxymethylcellulose (CMC)
[5] = dose: 200.0 mg/kg/injection, schedule: Q01DX001 (ip), vehicle: carboxymethylcellulose (CMC)
[6] = dose: 200.0 mg/kg/injection, schedule: Q01DX009 (ip), vehicle: carboxymethylcellulose (CMC)
[7] = dose: 200.0 mg/kg/injection, schedule: Q04DX002 (ip), vehicle: Klucel (hydroxypropylcellulose) (HPC)
[8] = dose: 200.0 mg/kg/injection, schedule: Q04DX002 (ip), vehicle: carboxymethylcellulose (CMC)
[9] = dose: 400.0 mg/kg/injection, schedule: Q01DX001 (ip), vehicle: carboxymethylcellulose (CMC)
[10] = dose: 400.0 mg/kg/injection, schedule: Q01DX009 (ip), vehicle: carboxymethylcellulose (CMC)
[11] = dose: 400.0 mg/kg/injection, schedule: Q04DX002 (ip), vehicle: Klucel (hydroxypropylcellulose) (HPC)
[12] = dose: 400.0 mg/kg/injection, schedule: Q04DX002 (ip), vehicle: carboxymethylcellulose (CMC)
[13] = dose: 100.0 mg/kg/injection, schedule: Q01DX009 (ip), vehicle: saline with Tween-80
[14] = dose: 100.0 mg/kg/injection, schedule: Q04DX003 (ip), vehicle: saline with Tween-80
[15] = dose: 200.0 mg/kg/injection, schedule: Q01DX009 (ip), vehicle: saline with Tween-80
[16] = dose: 200.0 mg/kg/injection, schedule: Q04DX003 (ip), vehicle: saline with Tween-80
[17] = dose: 400.0 mg/kg/injection, schedule: Q01DX009 (ip), vehicle: saline with Tween-80
[18] = dose: 400.0 mg/kg/injection, schedule: Q04DX003 (ip), vehicle: saline with Tween-80

Measured: T/C

O=C1N(C[P+](c2ccccc2)(c2ccccc2)c2ccccc2)CCCN1C[P+](c1ccccc1)(c1ccccc1)c1ccccc1
inactive: dose: 1.56 mg/kg/injection, schedule: Q01DX009 (ip), vehicle: saline 96 % of control | dose: 3.12 mg/kg/injection, schedule: Q01DX005 (ip), vehicle: saline 100 % of control | dose: 3.12 mg/kg/injection, schedule: Q01DX009 (ip), vehicle: saline 93 % of control | dose: 3.12 mg/kg/injection, schedule: Q04DX002 (ip), vehicle: saline 88 % of control | dose: 6.25 mg/kg/injection, schedule: Q01DX005 (ip), vehicle: saline 94 % of control | dose: 6.25 mg/kg/injection, schedule: Q01DX009 (ip), vehicle: saline 86 % of control | dose: 6.25 mg/kg/injection, schedule: Q04DX002 (ip), vehicle: saline 95 % of control
active: dose: 1.56 mg/kg/injection, schedule: Q04DX002 (ip), vehicle: saline 150 % of control

CNC(=O)Oc1ccc(C2CCCCC2)cc1
inactive: [1] 99 % of control | [2] 93 % of control and 103 % of control | [3] 97 % of control | [4] 95 % of control and 101 % of control | dose: 100.0 mg/kg/injection, schedule: Q04DX003 (ip), vehicle: carboxymethylcellulose (CMC) 94 % of control | [5] 90 % of control | [6] 93 % of control and 95 % of control | [7] 97 % of control | [8] 101 % of control and 108 % of control | dose: 200.0 mg/kg/injection, schedule: Q04DX003 (ip), vehicle: carboxymethylcellulose (CMC) 94 % of control | [9] 92 % of control | [10] 98 % of control and 100 % of control | [11] 100 % of control | [12] 95 % of control and 101 % of control | dose: 400.0 mg/kg/injection, schedule: Q04DX003 (ip), vehicle: carboxymethylcellulose (CMC) 100 % of control

CONP(=O)(Oc1ccccc1)Oc1ccccc1
inactive: [1] 95 % of control | [5] 95 % of control | [9] 97 % of control

O=C(O)c1cccc2c1ccc1ccccc12
inactive: dose: 75.0 mg/kg/injection, schedule: Q04DX003 (ip), vehicle: saline 104 % of control | dose: 150.0 mg/kg/injection, schedule: Q04DX003 (ip), vehicle: saline 102 % of control | dose: 300.0 mg/kg/injection, schedule: Q04DX003 (ip), vehicle: saline 100 % of control

CCn1c(COc2ccc(Cl)cc2Cl)c(COC(=O)c2cccc(Cl)c2)c2ccccc21
inactive: [2] 98 % of control and 103 % of control | [4] 101 % of control and 102 % of control | [6] 97 % of control and 98 % of control | [8] 94 % of control and 98 % of control | [10] 87 % of control | [12] 95 % of control and 91 % of control

O=C1C(Cl)=C(Nc2ccccc2)C(=O)C(Cl)=C1Nc1ccccc1
inactive: [13] 87 % of control | [14] 88 % of control | [15] 87 % of control | [16] 92 % of control | [17] 94 % of control | [18] 95 % of control

O=[N+]([O-])c1ccc(O)c2ncccc12
inactive: dose: 25.0 mg/kg/injection, schedule: Q04DX002 (ip), vehicle: Klucel (hydroxypropylcellulose) (HPC) 102 % of control | dose: 50.0 mg/kg/injection, schedule: Q01DX001 (ip), vehicle: carboxymethylcellulose (CMC) 101 % of control | dose: 50.0 mg/kg/injection, schedule: Q01DX015 (ip), vehicle: saline 97 % of control | dose: 50.0 mg/kg/injection, schedule: Q04DX002 (ip), vehicle: Klucel (hydroxypropylcellulose) (HPC) 94 % of control and 102 % of control | [1] 109 % of control | dose: 100.0 mg/kg/injection, schedule: Q01DX015 (ip), vehicle: saline 93 % of control | [3] 94 % of control (2×) and 95 % of control | [5] 95 % of control | dose: 200.0 mg/kg/injection, schedule: Q01DX015 (ip), vehicle: saline 95 % of control | [7] 110 % of control | dose: 400.0 mg/kg/injection, schedule: Q01DX015 (ip), vehicle: saline 91 % of control | [11] 91 % of control

Cc1cc(C)n(/N=C/c2cccc(Cl)c2)c(=O)c1C#N
inactive: [13] 88 % of control | [14] 95 % of control | [15] 87 % of control | [16] 90 % of control | [17] 92 % of control | [18] 90 % of control

O=C1c2ccccc2-c2ccccc21
inactive: [13] 88 % of control | [14] 102 % of control | [15] 93 % of control | [16] 102 % of control | [17] 88 % of control | [18] 105 % of control

CCN(CC)CCOc1ccccc1C
inactive: dose: 20.0 mg/kg/injection, schedule: Q01DX009 (ip), vehicle: saline 90 % of control | dose: 40.0 mg/kg/injection, schedule: Q01DX009 (ip), vehicle: saline 88 % of control | dose: 40.0 mg/kg/injection, schedule: Q04DX003 (ip), vehicle: saline 106 % of control | dose: 80.0 mg/kg/injection, schedule: Q01DX009 (ip), vehicle: saline 89 % of control | dose: 80.0 mg/kg/injection, schedule: Q04DX003 (ip), vehicle: saline 100 % of control

CC1([N+](=O)[O-])COP(=O)(N2CC2)OC1 (configuration not stated)
inactive: dose: 62.5 mg/kg/injection, schedule: Q01DX Z (ip), vehicle: carboxymethylcellulose (CMC) 87 % of control | dose: 125.0 mg/kg/injection, schedule: Q01DX Z (ip), vehicle: carboxymethylcellulose (CMC) 90 % of control

CC1(C)N=C(N)N=C(N)N1c1cccc(Br)c1
inactive: dose: 2.5 mg/kg/injection, schedule: Q01DX Z (ip), vehicle: saline 121 % of control | dose: 11.0 mg/kg/injection, schedule: Q01DX Z (ip), vehicle: carboxymethylcellulose (CMC) 117 % of control | dose: 37.0 mg/kg/injection, schedule: Q01DX Z (ip), vehicle: carboxymethylcellulose (CMC) 105 % of control | dose: 50.0 mg/kg/injection, schedule: Q01DX Z (ip), vehicle: methylcellulose (MC) 97 % of control | dose: 60.0 mg/kg/injection, schedule: Q01DX Z (ip), vehicle: carboxymethylcellulose (CMC) 107 % of control | dose: 75.0 mg/kg/injection, schedule: Q01DX001 (ip), vehicle: other 103 % of control | dose: 90.0 mg/kg/injection, schedule: Q01DX Z (ip), vehicle: carboxymethylcellulose (CMC) 90 % of control | dose: 150.0 mg/kg/injection, schedule: Q01DX001 (ip), vehicle: other 108 % of control
active: dose: 16.0 mg/kg/injection, schedule: Q01DX Z (ip), vehicle: saline 162 % of control | dose: 25.0 mg/kg/injection, schedule: Q01DX Z (ip), vehicle: saline 168 % of control

ClCC(Br)CBr (configuration not stated)
inactive: dose: 75.0 mg/kg/injection, schedule: Q01DX001 (ip), vehicle: saline 106 % of control | dose: 150.0 mg/kg/injection, schedule: Q01DX001 (ip), vehicle: saline 104 % of control

N#Cc1ccccc1COCc1ccccc1
inactive: dose: 100.0 mg/kg/injection, schedule: Q01DX009 (ip), vehicle: Klucel (hydroxypropylcellulose) (HPC) 102 % of control | dose: 200.0 mg/kg/injection, schedule: Q01DX009 (ip), vehicle: Klucel (hydroxypropylcellulose) (HPC) 98 % of control | dose: 400.0 mg/kg/injection, schedule: Q01DX009 (ip), vehicle: Klucel (hydroxypropylcellulose) (HPC) 95 % of control
